# Results reported in patent US12209102B2, “Heterocyclic compounds and uses thereof” (Kumquat Biosciences Inc., priority 2022, dated 2025).
# Columns and labels:
# K-Ras G12D = target: T1, K-Ras G12D (Homo sapiens, UniProt P01116, G12D); assay: HTRF resonance energy transfer assay, K-Ras G12D / SOS1 interaction; format: biochemical; details: HTRF assay of Example 5; read-out: IC50 against K-Ras G12D
# T1 construct: made in house; host or cells: E. coli BL21 (DE3)
# Method in brief: (§1)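 Compounds, tested in duplicate at 10 μM down to 0.01 μM, were read after about 10 min or more by HTRF as the 665/620 nm emission ratio (337 nm excitation) to derive IC50. This ratio reports FRET between an anti-GST-Eu donor on GST-K-Ras (wild-type or mutant) and an anti-6His-XL665 acceptor on His-hSOS1. Buffer: ~5 mM HEPES pH 7.4, 150 mM NaCl, 1 mM DTT, 0.05% BSA, 0.0025% Igepal.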
# K-Ras G12S = target: T2, K-Ras G12S (Homo sapiens, UniProt P01116, G12S); assay: HTRF resonance energy transfer assay, K-Ras G12S / SOS1 interaction; format: biochemical; details: HTRF assay of Example 5; read-out: IC50 against K-Ras G12S
# T2 construct: made in house; host or cells: E. coli BL21 (DE3)
# Method in brief: as §1
# K-Ras G12V = target: T3, K-Ras G12V (Homo sapiens, UniProt P01116, G12V); assay: HTRF resonance energy transfer assay, K-Ras G12V / SOS1 interaction; format: biochemical; details: HTRF assay of Example 5; read-out: IC50 against K-Ras G12V
# T3 construct: made in house; host or cells: E. coli BL21 (DE3)
# Method in brief: as §1
# K-Ras WT = target: T4, K-Ras WT (Homo sapiens, UniProt P01116); assay: HTRF resonance energy transfer assay, K-Ras WT / SOS1 interaction; format: biochemical; details: HTRF assay of Example 5; read-out: IC50 against K-Ras WT
# T4 construct: made in house; host or cells: E. coli BL21 (DE3)
# Method in brief: as §1
# GP2D cells = assay: Ras cellular assay, growth of cells with K-Ras G12D mutation (CellTiter-Glo); format: cell-based; details: cell growth, Example 9, G12D mutation, read-out: IC50 against GP2D cells
# SW620 cells = assay: Ras cellular assay, growth of cells with K-Ras G12V mutation (CellTiter-Glo); format: cell-based; details: Homo sapiens, SW-620; cell growth, Example 9, G12V mutation; read-out: IC50 against SW620 cells
# Method in brief: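 IC50 values came from a four-parameter fit of CellTiter-Glo viability, read roughly 6 days after dosing with e.g. a 10-point threefold dilution series. G12V-mutant SW620 cells (e.g. 800 per well) had been plated the previous day in RPMI-1640/10% heat-inactivated FBS, on tissue culture-treated or ultra-low attachment plates.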
# T2 sequence (P01116 1-188 isoform P01116-2 G12S): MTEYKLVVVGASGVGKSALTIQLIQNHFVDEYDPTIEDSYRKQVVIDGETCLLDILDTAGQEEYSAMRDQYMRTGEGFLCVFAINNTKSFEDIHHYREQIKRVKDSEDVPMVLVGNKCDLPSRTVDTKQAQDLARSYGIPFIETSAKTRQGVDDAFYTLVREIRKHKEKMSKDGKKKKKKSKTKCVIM
# T3 sequence (P01116 1-188 isoform P01116-2 G12V): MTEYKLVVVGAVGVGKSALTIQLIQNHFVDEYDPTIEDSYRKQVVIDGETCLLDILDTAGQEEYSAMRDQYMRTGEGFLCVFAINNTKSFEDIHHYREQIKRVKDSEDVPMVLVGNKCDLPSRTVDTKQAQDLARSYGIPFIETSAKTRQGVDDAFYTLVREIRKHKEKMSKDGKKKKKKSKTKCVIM
# T1 sequence (P01116 1-188 isoform P01116-2 G12D): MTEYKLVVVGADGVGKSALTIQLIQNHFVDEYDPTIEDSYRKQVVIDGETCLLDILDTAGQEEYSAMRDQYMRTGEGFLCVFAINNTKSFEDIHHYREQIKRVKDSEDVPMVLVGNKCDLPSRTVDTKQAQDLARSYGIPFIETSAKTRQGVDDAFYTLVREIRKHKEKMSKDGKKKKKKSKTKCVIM
# T4 sequence (P01116 1-188 isoform P01116-2): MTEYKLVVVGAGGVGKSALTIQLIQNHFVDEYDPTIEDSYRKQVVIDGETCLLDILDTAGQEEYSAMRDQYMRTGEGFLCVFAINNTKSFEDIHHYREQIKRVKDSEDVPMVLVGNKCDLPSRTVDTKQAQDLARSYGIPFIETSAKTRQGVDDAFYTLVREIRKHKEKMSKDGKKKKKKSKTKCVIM
IC50 (K-Ras G12D) [nM],IC50 (K-Ras G12S) [nM],IC50 (K-Ras G12V) [nM],IC50 (K-Ras WT) [nM],IC50 (SW620 cells) [nM],SMILES,IC50 (GP2D cells) [nM]
< 100,< 100,< 100,< 100,< 5000,"N#Cc1c(N)sc2c(F)ccc(-c3c(Cl)c4c5c(nc(OC[C@@]67CCCN6C[C@H](F)C7)nc5c3F)N(CC(F)F)[C@@H](C(F)(F)F)CO4)c12 [Compound 672, 2-amino-4-((R)-8-chloro-4-(2,2-difluoroethyl)-10-fluoro-2-(((2R,7aS)-2-fluorotetrahydro-1H-pyrrolizin-7a(5H)-yl)methoxy)-5-(trifluoromethyl)-5,6-dihydro-4H-[1,4]oxazepino[5,6,7-de]quinazolin-9-yl)-7-fluorobenzo[b]thiophene-3-carbonitrile]",< 500
< 100,< 100,< 100,< 100,< 5000,"C[C@@H]1CCOc2c(Cl)c(-c3ccc(F)c4sc(N)c(C#N)c34)c(F)c3nc(OC[C@@]45CCCN4C[C@H](F)C5)nc(c23)N1 [Compound 1219, 2-amino-4-((5R)-9-chloro-11-fluoro-2-(((2R,7aS)-2-fluorotetrahydro-1H-pyrrolizin-7a(5H)-yl)methoxy)-5-methyl-4,5,6,7-tetrahydro-[1,5]oxazocino[4,3,2-de]quinazolin-10-yl)-7-fluorobenzo[b]thiophene-3-carbonitrile]",< 500
< 100,< 100,< 100,< 100,< 5000,"N#Cc1c(N)sc2c(F)ccc(-c3c(Cl)c4c5c(nc(OC[C@@]67CCCN6C[C@H](F)C7)nc5c3F)N(CCC(F)F)[C@@H](CNC=O)CO4)c12 [Compound 614, N-(((5S)-9-(2-amino-3-cyano-7-fluorobenzo[b]thiophen-4-yl)-8-chloro-4-(3,3-difluoropropyl)-10-fluoro-2-(((2R,7aS)-2-fluorotetrahydro-1H-pyrrolizin-7a(5H)-yl)methoxy)-5,6-dihydro-4H-[1,4]oxazepino[5,6,7-de]quinazolin-5-yl)methyl)formamide]",< 500
< 100,< 100,< 100,< 100,< 5000,"CC(O)C1COc2c(Cl)c(-c3ccc(F)c4sc(N)c(C#N)c34)c(F)c3nc(OC[C@@]45CCCN4C[C@H](F)C5)nc(c23)N1CC1CCNCC1 (stereo partly drawn) [Compound 1125, 2-amino-4-(8-chloro-10-fluoro-2-(((2R,7aS)-2-fluorotetrahydro-1H-pyrrolizin-7a(5H)-yl)methoxy)-5-(1-hydroxyethyl)-4-(piperidin-4-ylmethyl)-5,6-dihydro-4H-[1,4]oxazepino[5,6,7-de]quinazolin-9-yl)-7-fluorobenzo[b]thiophene-3-carbonitrile]",< 500
< 100,< 100,< 100,< 100,< 5000,"N#Cc1c(N)sc2c(F)ccc(-c3c(Cl)c4c5c(nc(OC[C@@]67CCCN6C[C@H](F)C7)nc5c3F)N(CCC(F)F)[C@@H](C3(O)CC3)CO4)c12 [Compound 986, 2-amino-4-((R)-8-chloro-4-(3,3-difluoropropyl)-10-fluoro-2-(((2R,7aS)-2-fluorotetrahydro-1H-pyrrolizin-7a(5H)-yl)methoxy)-5-(1-hydroxycyclopropyl)-5,6-dihydro-4H-[1,4]oxazepino[5,6,7-de]quinazolin-9-yl)-7-fluorobenzo[b]thiophene-3-carbonitrile]",< 500
< 100,< 100,< 100,< 100,< 5000,"CC(C)(O)[C@H]1COc2c(Cl)c(-c3ccc(F)c4sc(N)c(C#N)c34)c(F)c3nc(OC[C@@]45CCCN4C[C@H](F)C5)nc(c23)N1 [Compound 815, 2-amino-4-((5R)-8-chloro-10-fluoro-2-(((2R,7aS)-2-fluorotetrahydro-1H-pyrrolizin-7a(5H)-yl)methoxy)-5-(2-hydroxypropan-2-yl)-5,6-dihydro-4H-[1,4]oxazepino[5,6,7-de]quinazolin-9-yl)-7-fluorobenzo[b]thiophene-3-carbonitrile]",< 500
–,–,–,–,< 5000,"C=C[C@H]1COc2c(Cl)c(-c3ccc(F)c4sc(N)c(C#N)c34)c(F)c3nc(OC[C@@]45CCCN4C[C@H](F)C5)nc(c23)N1CCC(F)F (single isomer, unassigned) [Compound 727]",< 500
< 100,< 100,< 100,< 100,< 5000,"C[C@H](O)[C@H]1COc2c(Cl)c(-c3ccc(F)c4sc(N)c(C#N)c34)c(F)c3nc(OC[C@@]45CCCN4C[C@H](F)C5)nc(c23)N1 [Compound 775, 2-amino-4-((5R)-8-chloro-10-fluoro-2-(((2R,7aS)-2-fluorotetrahydro-1H-pyrrolizin-7a(5H)-yl)methoxy)-5-((S)-1-hydroxyethyl)-5,6-dihydro-4H-[1,4]oxazepino[5,6,7-de]quinazolin-9-yl)-7-fluorobenzo[b]thiophene-3-carbonitrile]",< 500
< 100,< 100,< 100,< 100,< 5000,"CN(C)CCN1c2nc(OC[C@@]34CCCN3C[C@H](F)C4)nc3c(F)c(-c4ccc(F)c5sc(N)c(C#N)c45)c(Cl)c(c23)OCC1CC#N (stereo partly drawn) [Compound 885, 2-amino-4-(8-chloro-5-(cyanomethyl)-4-(2-(dimethylamino)ethyl)-10-fluoro-2-(((2R,7aS)-2-fluorotetrahydro-1H-pyrrolizin-7a(5H)-yl)methoxy)-5,6-dihydro-4H-[1,4]oxazepino[5,6,7-de]quinazolin-9-yl)-7-fluorobenzo[b]thiophene-3-carbonitrile]",< 500
–,–,–,–,< 5000,"C#C[C@H]1COc2c(Cl)c(-c3ccc(F)c4sc(N)c(C#N)c34)c(F)c3nc(OC[C@@]45CCCN4C[C@H](F)C5)nc(c23)N1CC(F)F [Compound 730, 2-amino-4-((5S)-8-chloro-4-(2,2-difluoroethyl)-5-ethynyl-10-fluoro-2-(((2R,7aS)-2-fluorotetrahydro-1H-pyrrolizin-7a(5H)-yl)methoxy)-5,6-dihydro-4H-[1,4]oxazepino[5,6,7-de]quinazolin-9-yl)-7-fluorobenzo[b]thiophene-3-carbonitrile]",< 500
–,< 100,< 100,< 100,< 5000,"C[C@H]1COc2c(Cl)c(-c3ccc(F)c4sc(N)c(C#N)c34)c(F)c3nc(OC[C@@]45CCCN4C[C@H](F)C5)nc(c23)N1CC(F)F [Compound 1088, 2-amino-4-((5S)-8-chloro-4-(2,2-difluoroethyl)-10-fluoro-2-(((2R,7aS)-2-fluorotetrahydro-1H-pyrrolizin-7a(5H)-yl)methoxy)-5-methyl-5,6-dihydro-4H-[1,4]oxazepino[5,6,7-de]quinazolin-9-yl)-7-fluorobenzo[b]thiophene-3-carbonitrile]",< 500
–,–,–,–,< 5000,"N#Cc1c(N)sc2c(F)ccc(-c3c(Cl)c4c5c(nc(OC[C@@]67CCCN6C[C@H](F)C7)nc5c3F)N(CC(F)F)[C@@H](C3CC3C#N)CO4)c12 (stereo partly drawn) [Compound 1109, 2-amino-4-((5S)-8-chloro-5-(2-cyanocyclopropyl)-4-(2,2-difluoroethyl)-10-fluoro-2-(((2R,7aS)-2-fluorotetrahydro-1H-pyrrolizin-7a(5H)-yl)methoxy)-5,6-dihydro-4H-[1,4]oxazepino[5,6,7-de]quinazolin-9-yl)-7-fluorobenzo[b]thiophene-3-carbonitrile]",< 500
